The values that follow come from patent US20260035363A1, “COMPOUNDS AND METHODS OF USE THEREOF AS ANTIBACTERIAL AGENTS” (priority 2019, published 2026).

Common to all, as to format: cell-based
Experiment [1] relates to mitochondrial protein synthesis in HepG2 cells. Description: Mitochondrial protein synthesis assay (COX-I to SDH-A ratio, In Cell ELISA). Conditions: Homo sapiens, HepG2, 96 h, 4 days, ratio of COX-I to SDH-A levels, read-out: MPS IC50. The procedure: Mitochondrial Protein Synthesis Assay
Inhibition of mitochondrial protein synthesis was assessed in HepG2 cells by comparing the levels of two subunits of oxidative phosphorylation enzyme complexes, subunit I of Complex IV (COX-I) and the 70 kDa subunit of Complex II (SDH-A). COX-I is mitochondrial DNA encoded and SDH-A is nuclear DNA encoded. HepG2 cells were seeded in 96-well collagen coated plates at 8,000 cells per well and exposed to 2-fold serial dilutions of compounds from 100 μM to 6.25 μM. Microtiter plates were incubated for approximately 5 replication cycles (4 days) prior to assessment of protein levels using a kit as described by the manufacturer (ab110217 MitoBiogenesis In Cell ELISA Kit, Abcam, Cambridge, MA). Inhibition of mitochondrial protein synthesis was expressed as a ratio of COX-1 to SDH-A levels.

Experiment [2] deals with Mycobacterium tuberculosis (Mtb-GFP; H37Rv pMSP12::GFP). Description: microbe, parasite or virus in culture. Particulars: 168 h, pH 6.8, read-out: Mtb Cho MITC95, cholesterol carbon source, pH 6.8, 7-day growth, GFP fluorescence, lowest concentration inhibiting 95% of growth.
Experiment [3] has the same test system. Description: microbe, parasite or virus in culture. Particulars: 168 h, pH 6.8, read-out: Mtb Glu MITC95, glucose carbon source, pH 6.8, 7-day growth, GFP fluorescence, lowest concentration inhibiting 95% of growth.

≈ marks a conversion by molar mass, not a printed value. Like-named read-outs stand apart in the source and are kept apart here. Where only a bound is given, the exact number is not on record here.

With `CN1CC(S(=O)(=O)c2ccc(-c3c(F)cc(C4=NO[C@@H](CO)C4)cc3F)cc2)C1` [Example 41, {(5R)-3-[2,6-Difluoro-4′-(1-methylazetidine-3-sulfonyl)[1,1′-biphenyl]-4-yl]-4,5-dihydro-1,2-oxazol-5-yl}methanol], in experiment [1], the IC50 (as a rule, the concentration that inhibits the measured activity by half) was greater than 100 µM. Also, the MIC was 2.34 µM (≈ 0.989 µg/mL) in experiment [2] and 1.56 µM (≈ 0.659 µg/mL) in experiment [3].
The like results for `Fc1cc(C2=NO[C@@H](Cn3ccnn3)C2)ccc1-c1ccn2c(C3(F)CNC3)nnc2c1` [Example 52, 3-(3-Fluoroazetidin-3-yl)-7-(2-fluoro-4-{(5R)-5-[(1H-1,2,3-triazol-1-yl)methyl]-4,5-dihydro-1,2-oxazol-3-yl}phenyl)[1,2,4]triazolo [4.3-a]pyridine] were, in that order, 27 µM, 0.78 µM (≈ 0.34 µg/mL) and 0.78 µM (≈ 0.34 µg/mL).
The like results for `Fc1cc(C2=NO[C@@H](Cn3ccnn3)C2)ccc1-c1ccn2c(C3CNC3)nnc2c1` [Example 37, 3-(Azetidin-3-yl)-7-(2-fluoro-4-{(5R)-5-[(1H-1,2,3-triazol-1-yl)methyl]-4,5-dihydro-1,2-oxazol-3-yl}phenyl)[1,2,4]triazolo[4,3-a]pyridine] were, in that order, 65 µM, 1.56 µM (≈ 0.653 µg/mL) and 0.78 µM (≈ 0.326 µg/mL).
The like results for `CN1CC(C)(S(=O)(=O)c2ccc(-c3ccc(C4=NO[C@@H](Cn5ccnn5)C4)c(F)c3F)cc2)C1` [Example 26, 1-({(5R)-3-[4′-(1,3-Dimethylazetidine-3-sulfonyl)-2,3-difluoro[1,1′-biphenyl]-4-yl]-4,5-dihydro-1,2-oxazol-5-yl}methyl)-1H-1,2,3-triazole] were, in that order, 28 µM, 0.39 µM (≈ 0.19 µg/mL) and 0.39 µM (≈ 0.19 µg/mL).
For the compound `CN1CC(C)(S(=O)(=O)c2ccc(-c3c(F)cc(C4=NO[C@@H](Cn5ccnn5)C4)cc3F)cc2)C1` [Example 22, 1-({(5R)-3-[4′-(1,3-Dimethylazetidine-3-sulfonyl)-2,6-difluoro[1,1′-biphenyl]-4-yl]-4,5-dihydro-1,2-oxazol-5-yl}methyl)-1H-1,2,3-triazole], the IC50 in experiment [1] came out at 25 µM. For the same compound, the figures for the MIC in experiment [2] and in experiment [3] were 0.49 µM (≈ 0.239 µg/mL) and 0.29 µM (≈ 0.141 µg/mL), respectively.
The like results for `CCC1(S(=O)(=O)c2ccc(-c3ccc(C4=NO[C@@H](Cn5ccnn5)C4)cc3F)cc2)CN(C)C1` [Example 43, 1-({(5R)-3-[4′-(3-Ethyl-1-methylazetidine-3-sulfonyl)-2-fluoro[1,1′-biphenyl]-4-yl]-4,5-dihydro-1,2-oxazol-5-yl}methyl)-1H-1,2,3-triazole] were, in that order, 4.1 µM, 0.19 µM (≈ 0.0919 µg/mL) and 0.19 µM (≈ 0.0919 µg/mL).
The like results for `CC1(c2nnc3cc(-c4ccc(C5=NO[C@@H](Cn6ccnn6)C5)cc4F)ccn23)CNC1` [Example 12, 7-(2-Fluoro-4-{(5R)-5-[(1H-1,2,3-triazol-1-yl)methyl]-4,5-dihydro-1,2-oxazol-3-yl}phenyl)-3-(3-methylazetidin-3-yl)[1,2,4]triazolo[4,3-a]pyridine] were, in that order, greater than 100 µM, 0.78 µM (≈ 0.337 µg/mL) and 0.78 µM (≈ 0.337 µg/mL).
The like results for `CC(=O)NC[C@H]1CC(c2ccc(-c3ccc(S(=O)(=O)C4(C)CN(C)C4)cc3)c(F)c2)=NO1` [Example 18, N-[[(5R)-3-[4-[4-(1,3-Dimethylazetidin-3-yl)sulfonylphenyl]-3-fluoro-phenyl]-4,5-dihydroisoxazol-5-yl]methyl]acetamide] were, in that order, 13 µM, 0.39 µM (≈ 0.179 µg/mL) and 0.39 µM (≈ 0.179 µg/mL).
